Measured values reported in patent US4089959A, “Long-acting xanthine bronchodilators and antiallergy agents” (priority 1976, dated 1978).

How the values were obtained:
[1] = test system: histamine-induced bronchoconstriction; assay: BD: bronchodilator activity against histamine-induced bronchoconstriction in the guinea pig; assay type: in vivo; settings: for potency, in words: 4280 at 20 mpK po vs 4258 at 15 mpK po; for lethal (animals) / dose showing lethal effects: guinea pig; for dose showing lethal effects: po
Protocol: A modification of the method of Siegmund. O. H., et.al., J. Pharmacol. and Exp. Therap. 90:254-9, 1947, is used. […] Times for prostration are recorded.

[2] = test system: guinea pig tracheal chain; assay: SP: spasmolytic activity in vitro, guinea pig tracheal chain preparation; assay type: cell-based; settings: Cavia porcellus; given as fraction of molar, e.g. M/1000; read-out: SP in vitro, C: molar (M) concentration required to produce maximum relaxation
From the text: SP: Spasmolytic activity evaluated in vitro using guinea pig tracheal chain preparation, and expressed as the molar (M) concentration required to produce maximum relaxation. The method used in that of Castillo and de Beer, J. Pharmac. Expt. Therap. 90, 104, 1947.

[3] = test system: antigen-induced bronchconstriction; assay: AA: antiallergy (anti-anaphylactic) activity against antigen-induced bronchoconstriction in sensitized rats; settings: 1h
From the text: The animals are subdivided into control and test groups.
Test animals receive a drug either orally, intraperitoneally or intravenously and are challenged with intravenous antigen at fixed time intervals after dosing. Antigen-induced increases in tracheal pressure are monitored and reflect the extent of bronchoconstriction.

in vivo = assay: in vivo
Protocol: (§1) The LD50 was determined in three species, the mouse (male, 18-25 g), the albino rat (female, 150-200 g) and the albino guinea pig (male 180-280 g) by oral administration and in the albino rat by intraperitoneal administration. The animals are fasted overnight prior to testing. Six groups of 10 animals are used; five groups are dosed with the test substance, the sixth group serves as a control and receives the drug vehicle at the highest test concentration. The compounds were administered in a 0.5% gum tragacanth solution in distilled water using a constant logarithmic increment in dose. Dose volume ranged from […].
The animals were housed five per cage (rat and guinea pig) or ten per cage (mouse) with free access to food and water. The number of dead animals was recorded daily for five consecutive days.

LD50, mouse = settings: in vivo, po
Protocol: as §1
The animals were housed five per cage (rat and guinea pig) or ten per cage (mouse) with free access to food and water. The number of dead animals was recorded daily for five consecutive days. The total mortality per group of 10 for each dose level was recorded and LD50 with Confidence Limits calculated according to the method described by Weil, C. S., Biometrics 8(3): 249-263, 1952.

[4] = test system: antigen-induced wheal formation; assay: PCA: passive cutaneous anaphylaxis in the rat; assay type: in vivo; settings: 20 mg/kg po
Protocol: PCA: Antianaphylactic activity against passive cutaneous anaphylaxis in the rat, expressed as % protection against antigen-induced wheal formation.
The method used is that of Ogilvie, B. M., Immunology 12, 113-131 (1967). Reaginic […] antibodies develope in that rat following subcutaneous injection of Nippostrongylus brasiliensis larvae. Antisera, collected 28 days later are injected subcutaneously into new rats.

[5] = test system: histamine-induced bronchoconstriction; assay: CP: cardiopulmonary activity against histamine-induced bronchoconstriction in the dog; assay type: in vivo; settings: histamine administration; vs theophylline
From the text: Int. Pharmacodyn. Therap. […] Pretreatment with bronchodilator drugs aims to block the bronchospastic response to histamine. Each dog serves as its own control.

CC(C)Cn1c(=O)n(C)c(=O)c2[nH]cnc21 [Compound 4258]
BD, % protection ([1]; 15 mpK po, 30'): 45% | BD, % protection ([1]; 15 mpK po, 2h): 75% | BD, % protection ([1]; 15 mpK po, 4h): 39% | potency, in words [1]: equal potency | lethal (animals) ([1]; 25 mpK po): 2/4 | dose showing lethal effects [1]: 25 mpK | EC (maximum relaxation) [2]: 0.001 M | AA, toxicity noted in place of % protection ([3]; 2.0 mpK ip): tox

CCCC(C)Cn1c(=O)n(C)c(=O)c2[nH]c(C)nc21 (stereo not shown) [Compound 4373, 1,8-dimethyl-3-(2-methyl-1-pentyl)xanthine]
BD, % protection ([1]; 40 mpK po, 30'): 71% | BD, % protection ([1]; 40 mpK po, 4h): 87% | BD, % protection ([1]; 40 mpK po, 6h): 96% | BD, % protection ([1]; 80 mpK po, 30'): 81% | BD, % protection ([1]; 80 mpK po, 4h): 100% | EC (maximum relaxation) [2]: 0.05 M | AA, % protection ([3]; 20 mpK ip): 54%

Cc1nc2c([nH]1)c(=O)n(C)c(=O)n2CC(C)C [Compound 4388, 1,8-dimethyl-3-isobutylxanthine]
BD, % protection ([1]; 10 mpK po, 1h): 76% | BD, % protection ([1]; 10 mpK po, 4h): 73% | BD, % protection ([1]; 10 mpK po, 6h): 80% | toxic effects in the BD (guinea pig) assay, in words ([1]; 20 mpK po): pronounced toxicity and was even lethal to one animal | bronchodilator potency, in words ([1]; general statement): great potency and is long-acting | lethal (animals) ([1]; 20 mpK po): 1/4 | EC (maximum relaxation) [2]: 0.001 M | AA, % protection ([3]; 2.5 mpK po): 50% | AA, % protection ([3]; 75 mpK ip): 70%

Cc1nc2c([nH]1)c(=O)n(C)c(=O)n2C [Compound 4296]
BD, % protection ([1]; 100 mpK po, 8h): 23% | BD, % protection ([1]; 150 mpK po, 30'): 68% | BD, % protection ([1]; 150 mpK po, 8h): 85% | EC (maximum relaxation) [2]: 0.0714 M

CCC(C)Cn1c(=O)n(C)c(=O)c2[nH]c(C)nc21 (stereo not shown) [Compound 4383, 1,8-dimethyl-3-(2-methyl-1-butyl) xanthine]
BD, % protection ([1]; 10 mpK po, 30'): 35% | bronchodilation potency in the BD (guinea pig) assay, in words ([1]; 10 mpK po, 4383 vs 4388): about the same bronchodilation potency as 4388 | BD, % protection ([1]; 10 mpK po, 2h): 63% | BD, % protection ([1]; 10 mpK po, 6h): 66% | toxic effects in the BD (guinea pig) assay, in words ([1]; 20 mpK po): no toxic effects | BD, % protection ([1]; 20 mpK po, 1h): 92% | BD, % protection ([1]; 20 mpK po, 4h): 100% | BD, % protection ([1]; 20 mpK po, 6h): 97% | EC (maximum relaxation) [2]: 0.001 M | LD50 at 120 h (in vivo; ip, rat): 24.6 mg/kg | LD50 at 120 h (in vivo; po, guinea pig): 21.7 mg/kg | LD50 at 120 h (in vivo; po, rat): 88.7 mg/kg | LD50 at 120 h (LD50, mouse): 66.6 mg/kg | Wheal Diameter, % Δ [4]: 50% | Wheal Intensity, % Δ [4]: 48% | Wheal Diameter: Mean ± S.E.M., Response ([4]; control 1.50 ± 0.16): 0.74 ± 0.16 cm | Wheal Intensity: Mean ± S.E.M., Response ([4]; control 2.17 ± 0.21): 1.13 | bronchodilation in the dog, in words [5]: significantly reduces the decrease in pulmonary compliance and increase in pulmonary resistance due to histamine administration | AA, % protection ([3]; 2.5 mpK po): 58% | AA, % protection ([3]; 4 mpK ip): 57%

Cn1c(=O)c2[nH]cnc2n(C)c1=O [Theophylline, 1,3-dimethylxanthine]
EC (maximum relaxation) [2]: 0.1 M

CCC(C)Cn1c(=O)n(C)c(=O)c2[nH]cnc21 (stereo not shown) [Compound 4280]
BD, % protection ([1]; 20 mpK po, 30'): 86% | BD, % protection ([1]; 20 mpK po, 1h): 86% | BD, % protection ([1]; 20 mpK po, 2h): 80% | BD, % protection ([1]; 20 mpK po, 4h): 13% | potency, in words [1]: equal potency | lethal (animals) ([1]; 80 mpK po): 3/8 | dose showing lethal effects [1]: 80 mpK | EC (maximum relaxation) [2]: 0.001 M | AA, % protection ([3]; 15 mpK ip): 56%
